Source: ChEMBL document CHEMBL2046330, “Structure-based design of novel benzoxazinorifamycins with potent binding affinity to wild-type and rifampin-resistant mutant Mycobacterium tuberculosis RNA polymerases” (J Med Chem, 2012)
Values after ≈ are worked out from the molar mass of the structure shown.

Legend:
[1] = Inhibition of Mycobacterium tuberculosis wild type RNA polymerase by rolling circle transcription assay in the presence of sigmaA factor
[2] = system: Mycobacterium tuberculosis; experiment: microbe, parasite or virus in culture; details: H37Rv, 264 h
Description: Antitubercular activity against Mycobacterium tuberculosis H37Rv in anaerobic conditions after 11 days by luminescnece-based low-oxygen recovery assay

[3] = Cytotoxicity against human DPX2 cells expressing PXR assessed as decrease in cell viability at 100 uM after 24 hrs relative to control; assay type: ADME, cell-based; details: dpx2, 24 h
[4] = Half life in human; assay type: ADME, organism-based; details: in vivo
[5] = Metabolic stability in human microsomes assessed as compound remaining after 30 mins; assay type: ADME, Microsome; details: read-out: Stability
[6] = system: Mycobacterium tuberculosis; experiment: microbe, parasite or virus in culture; details: H37Rv, 168 h
Description: Antitubercular activity against Mycobacterium tuberculosis H37Rv in aerobic conditions after 7 days by microplate-based alamar blue assay

[7] = Inhibition of Mycobacterium tuberculosis wild type RNA polymerase by rolling circle transcription assay in the absence of sigmaA factor
[8] = Metabolic stability in mouse microsomes assessed as compound remaining after 30 mins; assay type: ADME, Microsome; details: read-out: Stability
[9] = molecular target: T1, Nuclear receptor subfamily 1 group I member 2 (Homo sapiens, UniProt O75469); experiment: Activation of PXR in human DPX2 cells at <100 uM after 24 hrs by luciferase reporter gene assay; assay type: cell-based; details: dpx2, 24 h
T1 sequence (O75469 whole entry): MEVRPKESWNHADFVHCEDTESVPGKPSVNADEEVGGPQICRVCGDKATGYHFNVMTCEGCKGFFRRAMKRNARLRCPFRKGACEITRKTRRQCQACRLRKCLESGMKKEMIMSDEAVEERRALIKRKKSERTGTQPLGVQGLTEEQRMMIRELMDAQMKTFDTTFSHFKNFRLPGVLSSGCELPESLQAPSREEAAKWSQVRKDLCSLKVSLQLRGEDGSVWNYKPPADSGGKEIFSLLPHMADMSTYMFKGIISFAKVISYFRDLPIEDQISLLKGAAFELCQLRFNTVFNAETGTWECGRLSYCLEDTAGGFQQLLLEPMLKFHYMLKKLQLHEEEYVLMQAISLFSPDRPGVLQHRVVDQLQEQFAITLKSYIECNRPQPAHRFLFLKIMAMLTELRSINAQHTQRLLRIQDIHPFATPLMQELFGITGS

[10] = Half life in mouse microsomes; assay type: ADME, Microsome
PXR (NR1I2) [11] = molecular target: T2, PXR (NR1I2) (Homo sapiens, UniProt O75469); experiment: Activation of PXR in human DPX2 cells at 100 uM after 24 hrs by luciferase reporter gene assay relative to control; assay type: cell-based; details: read-out: FC
T2 sequence (O75469 whole entry): T1 sequence (O75469 whole entry)

[12] = Half life in human microsomes; assay type: ADME, Microsome
PXR (NR1I2) [13] = molecular target: T2, PXR (NR1I2); experiment: Activation of PXR in human DPX2 cells at 6.25 uM after 24 hrs by luciferase reporter gene assay relative to control; assay type: cell-based; details: read-out: FC
[14] = Selectivity index, ratio of cytotoxicity against human DPX2 cells to IC50 for Mycobacterium wild type RNA polymerase; assay type: toxicity, cell-based; details: read-out: Selectivity Index
[15] = Cytotoxicity against human DPX2 cells expressing PXR assessed as decrease in cell viability at >6.25 uM after 24 hrs; assay type: ADME, cell-based; details: dpx2, 24 h
Blood [16] = experiment: Drug uptake in BALB/c mouse blood at 10 mg/kg, po administered qd for 5 days; assay type: ADME, organism-based; design: dose 10 mg/kg, route oral; details: in vivo, 120 h
[17] = T>MIC in BALB/c mouse at 10 mg/kg, po administered qd for 5 days; assay type: functional
[18] = Apparent plasma half life in BALB/c mouse at 10 mg/kg, po administered qd for 5 days; assay type: ADME, organism-based; design: dose 10 mg/kg, route oral; details: read-out: t1/2(app) (converted)
[19] = Cmax in BALB/c mouse at 10 mg/kg, po administered qd for 5 days; assay type: ADME, organism-based; design: dose 10 mg/kg, route oral; details: in vivo
[20] = Cmax in BALB/c mouse at 10 mg/kg, po administered as single dose; assay type: ADME, organism-based; design: dose 10 mg/kg, route oral; details: in vivo
[21] = Drug uptake in BALB/c mouse lung at 10mg/kg, po administered qd for 5 days; assay type: ADME, organism-based; details: read-out: Drug uptake
[22] = Tmax in BALB/c mouse at 10 mg/kg, po administered as single dose; assay type: ADME, organism-based; design: dose 10 mg/kg, route oral; details: in vivo
Mus musculus = experiment: Ratio of Cmax in BALB/c mouse at 10 mg/kg, po administered qd for 5 days to Cmax in BALB/c mouse at 10 mg/kg, po administered as single dose; assay type: ADME, organism-based; details: in vivo, 120 h
Blood [23] = experiment: Drug uptake in BALB/c mouse blood at 10 mg/kg, po administered as single dose; assay type: ADME, organism-based; design: dose 10 mg/kg, route oral; details: in vivo, BLD = below limit of detection
[24] = Tmax in BALB/c mouse at 10 mg/kg, po administered qd for 5 days; assay type: ADME, organism-based; design: dose 10 mg/kg, route oral; details: in vivo
[25] = Cytotoxicity against human DPX2 cells expressing PXR assessed as decrease in cell viability at 25 uM after 24 hrs; assay type: ADME, cell-based; details: dpx2, 24 h
[26] = molecular target: T1, Nuclear receptor subfamily 1 group I member 2; experiment: Activation of PXR in human DPX2 cells after 24 hrs by luciferase reporter gene assay; assay type: cell-based
PXR (NR1I2) [27] = molecular target: T2, PXR (NR1I2); experiment: Activation of PXR in human DPX2 cells after 24 hrs by luciferase reporter gene assay relative to control; assay type: cell-based; details: read-out: FC

SMILES: CO[C@H]1/C=C/O[C@@]2(C)Oc3c(C)c(O)c4c(=O)c(c5oc6cc(N7CCN(CC(C)C)CC7)cc(O)c6nc-5c4c3C2=O)NC(=O)/C(C)=C\C=C\[C@H](C)[C@H](O)[C@@H](C)[C@@H](O)[C@@H](C)[C@H](OC(C)=O)[C@@H]1C [RIFALAZIL]
- IC50 [1]: < 10 nM
- MIC90 [2]: < 0.017 µM
- fold change (FC) [3]: 2
- half-life [4]: 60 h
- remaining at 0.5 h [5]: 73%
- MIC90 [6]: < 0.004 µM
- IC50 [7]: 11.5 nM
- remaining at 0.5 h [8]: 67%
- Activity [9]: Not Active
- half-life [10]: 0.883 h
- fold induction at 24 h, 100 µM (PXR (NR1I2) [11]): 2
- half-life [12]: 1.08 h

SMILES: O=[N+]([O-])c1cn2c(n1)OC[C@@H](OCc1ccc(OC(F)(F)F)cc1)C2 [PRETOMANID]
- MIC90 [2]: 2.53 µM (≈ 0.909 µg/mL)

SMILES: CN[C@@H]1[C@H](O[C@H]2[C@H](O[C@H]3[C@H](O)[C@@H](O)[C@H](N=C(N)N)[C@@H](O)[C@@H]3N=C(N)N)O[C@@H](C)[C@]2(O)C=O)O[C@@H](CO)[C@H](O)[C@H]1O [STREPTOMYCIN]
- MIC90 [6]: 0.46 µM (≈ 0.268 µg/mL)

SMILES: CO[C@H]1/C=C/O[C@@]2(C)Oc3c(C)c(O)c4c(=O)c(c5oc6cccc(OCCCCN7CCN(CCn8ccnc8)CC7)c6nc-5c4c3C2=O)NC(=O)/C(C)=C\C=C\[C@H](C)[C@H](O)[C@@H](C)[C@@H](O)[C@@H](C)[C@H](OC(C)=O)[C@@H]1C
- IC50 [1]: < 10 nM
- MIC90 [2]: 0.35 µM (≈ 0.362 µg/mL)
- fold induction at 24 h, 6.25 µM (PXR (NR1I2) [13]): 3
- selectivity ratio [14]: 1000
- MIC90 [6]: 0.08 µM (≈ 0.0828 µg/mL)
- Activity [15]: Toxic
- IC50 [7]: < 10 nM

SMILES: NNC(=O)c1ccncc1 [ISONIAZID]
- MIC90 [2]: > 128 µM
- MIC90 [6]: 0.24 µM (≈ 0.0329 µg/mL)

SMILES: CCN(CC)CCOc1cccc2oc3c4c(=O)c5c(O)c(C)c6c(c5c-3nc12)C(=O)[C@@](C)(O/C=C/[C@H](OC)[C@@H](C)[C@@H](OC(C)=O)[C@H](C)[C@H](O)[C@H](C)[C@@H](O)[C@@H](C)/C=C/C=C(/C)C(=O)N4)O6
- IC50 [1]: < 10 nM
- Drug uptake (Blood [16]): Active
- T>MIC [17]: 4 h
- MIC90 [2]: 0.37 µM (≈ 0.333 µg/mL)
- half-life [18]: 1 h
- Cmax [19]: 1740 nM
- fold induction at 24 h, 6.25 µM (PXR (NR1I2) [13]): 3
- Cmax [20]: 18.5 nM
- selectivity ratio [14]: 1000
- remaining at 0.5 h [5]: 68%
- MIC90 [6]: 0.02 µM (≈ 0.018 µg/mL)
- Activity [15]: Toxic
- IC50 [7]: < 10 nM
- remaining at 0.5 h [8]: 86%
- concentration at 120 h [21]: 400 nM
- half-life [10]: 2.35 h
- half-life [12]: 0.9 h
- Tmax [22]: 1 h
- Ratio (Mus musculus): 100
- Drug uptake (Blood [23]): BLD
- Tmax [24]: 2 h

SMILES: CO[C@H]1/C=C/O[C@@]2(C)Oc3c(C)c(O)c4c(=O)c(c5oc6cccc(OCCCCN7CCN(C(=O)Cn8ccnc8)CC7)c6nc-5c4c3C2=O)NC(=O)/C(C)=C\C=C\[C@H](C)[C@H](O)[C@@H](C)[C@@H](O)[C@@H](C)[C@H](OC(C)=O)[C@@H]1C
- IC50 [1]: < 10 nM
- Activity [25]: Toxic
- MIC90 [2]: 0.4 µM (≈ 0.42 µg/mL)
- MIC90 [6]: 0.07 µM (≈ 0.0734 µg/mL)
- EC50 [26]: 5500 nM
- IC50 [7]: < 10 nM
- fold induction at 24 h (PXR (NR1I2) [27]): 5.9

SMILES: CO[C@H]1/C=C/O[C@@]2(C)Oc3c(C)c(O)c4c(O)c(c(/C=N/N5CCN(C)CC5)c(O)c4c3C2=O)NC(=O)/C(C)=C\C=C\[C@H](C)[C@H](O)[C@@H](C)[C@@H](O)[C@@H](C)[C@H](OC(C)=O)[C@@H]1C [RIFAMPIN]
- MIC90 [2]: 0.46 µM (≈ 0.379 µg/mL)
- MIC90 [6]: 0.13 µM (≈ 0.107 µg/mL)

SMILES: COc1c(N2C[C@@H]3CCCN[C@@H]3C2)c(F)cc2c(=O)c(C(=O)O)cn(C3CC3)c12 [MOXIFLOXACIN]
- MIC90 [6]: 0.46 µM (≈ 0.185 µg/mL)
